The values that follow come from patent publication EP4722231A1, “BIOSYNTHESIS METHOD FOR BROAD-SPECTRUM ANTIVIRAL POLYPEPTIDE” (Shanxi Jinbo Bio-Pharmaceutical Co., Ltd., priority 2023, dated 2025).

Molecules are shown by their SMILES.

The subject of the experiment is SARS-CoV-2 (D614G) pseudovirus. The settings on record: 24 h.

By IC50 is commonly meant the concentration that gives 50% inhibition.

Turning to `CC[C@H](C)[C@H](NC(=O)[C@H](C)NC(=O)[C@H](CCC(=O)O)NC(=O)[C@H](CCC(=O)O)NC(=O)[C@H](CC(C)C)NC(=O)[C@H](CCCCN)NC(=O)[C@H](CCCCN)NC(=O)[C@H](CCSC)NC(=O)[C@H](CCC(=O)O)NC(=O)[C@H](Cc1ccc(O)cc1)NC(=O)[C@H](CCC(=O)O)NC(=O)[C@H](CC(C)C)NC(=O)[C@H](CC(=O)O)NC(=O)[C@H](CC(C)C)NC(=O)[C@H](Cc1ccccc1)NC(=O)[C@@H](NC(=O)[C@@H](NC(=O)[C@H](CC(N)=O)NC(=O)[C@@H](NC(=O)[C@H](CCC(N)=O)NC(=O)[C@H](CC(=O)O)NC(=O)[C@H](CC(C)C)NC(=O)[C@H](CO)NC(C)=O)[C@@H](C)CC)C(C)C)[C@@H](C)O)C(=O)N[C@@H](CCCCN)C(=O)N[C@@H](CCCCN)C(=O)N[C@@H](CC(C)C)C(=O)N[C@@H](CCC(=O)O)C(=O)N[C@@H](CCC(=O)O)C(=O)N[C@@H](CO)C(=O)N[C@@H](Cc1ccc(O)cc1)C(=O)N[C@H](C(=O)N[C@@H](CC(=O)O)C(=O)N[C@@H](CC(C)C)C(=O)N[C@@H](CCCCN)C(=O)N[C@@H](CCC(=O)O)C(=O)N[C@@H](CC(C)C)C(N)=O)[C@@H](C)CC` [EK1], 308 nM corresponded to half-maximal inhibition (IC50).
